Results: patent publication US20230278972A1, “SUBSTITUTED HALOALKYL SULFONANILIDE HERBICIDES” (FMC Corporation, priority 2020, published 2023)

What was measured:
[1] = test system: Pigweed, Palmer (palmer amaranth, palmer pigweed, Amaranthus palmeri); assay: Test A1 preemergence, Pigweed, Palmer; format: in vivo
Summary of the method: (§1)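 Both timings started from seed in a loam-sand blend. Preemergence pots got a directed soil application immediately; postemergence pots were sprayed when seedlings had one or two leaves and stood 2–10 cm. Each compound was prepared in a non-phytotoxic solvent plus surfactant.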

[2] = test system: ragweed (common ragweed, Ambrosia artemisiifolia); assay: Test A1 preemergence, ragweed; format: in vivo
Summary of the method: as §1

[3] = test system: goosegrass (Eleusine indica); assay: Test A1 preemergence, goosegrass; format: in vivo
Summary of the method: as §1

[4] = test system: horseweed (Erigeron canadensis); assay: Test A1 postemergence, horseweed; format: in vivo; details: Postemergence
Summary of the method: (§2)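 Pre: seeds in loam/sand blend, directed soil spray. Post: potted plants, same soil, 2–10 cm, 1–2 leaf stage. Chemicals in non-phytotoxic solvent + surfactant for both.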

corn (Zea mays) [5] = assay: Test A1 preemergence, corn; format: in vivo
Summary of the method: (§3)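 Postemergence species (ragweed, Palmer pigweed, wild oat) were sprayed at one- to two-leaf stage, 2 to 10 cm tall. Corn was treated preemergence by directed soil spray. Both used a loam soil/sand blend and compounds in a non-phytotoxic solvent mixture with surfactant.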

[6] = test system: Oat, Wild (wild oat, Avena fatua); assay: Test A1 preemergence, Oat, Wild; format: in vivo
Summary of the method: as §1

[7] = test system: Oat, Wild (wild oat, Avena fatua); assay: Test A1 postemergence, Oat, Wild; format: in vivo; details: Postemergence, 125 g ai/ha; 0 to 100 scale
Summary of the method: as §3

[8] = test system: Ryegrass, Italian (Italian ryegrass, Lolium multiflorum); assay: Test A1 postemergence, Ryegrass, Italian; format: in vivo; details: Postemergence
Summary of the method: as §2

[9] = test system: Ryegrass, Italian (Italian ryegrass, Lolium multiflorum); assay: Test A1 preemergence, Ryegrass, Italian; format: in vivo
Summary of the method: as §1

[10] = test system: galium (catchweed bedstraw, Galium aparine); assay: Test A1 postemergence, galium; format: in vivo; details: Postemergence
Summary of the method: as §2

[11] = test system: Foxtail, Giant (giant foxtail, Setaria faberi); assay: Test A1 preemergence, Foxtail, Giant; format: in vivo
Summary of the method: as §1

[12] = test system: goosegrass (Eleusine indica); assay: Test A1 postemergence, goosegrass; format: in vivo; details: Postemergence
Summary of the method: as §2

soybean (Glycine max) [13] = assay: Test A1 preemergence, soybean; format: in vivo
Summary of the method: as §1

kochia (Bassia scoparia) [14] = assay: Test A1 preemergence, kochia; format: in vivo
Summary of the method: as §1

corn (Zea mays) [15] = assay: Test A1 postemergence, corn; format: in vivo; details: Postemergence
Summary of the method: as §1

[16] = test system: blackgrass (Alopecurus myosuroides); assay: Test A1 preemergence, blackgrass; format: in vivo
Summary of the method: as §1

kochia (Bassia scoparia) [17] = assay: Test A1 postemergence, kochia; format: in vivo; details: Postemergence
Summary of the method: as §2

rice (Oryza sativa) = assay: Test B1 flooded paddy test, rice; format: in vivo; details: 250 g ai/ha, Flood, applied to paddy water, 2-leaf stage, visually evaluated after 10 to 14 days
Text: (§4) A dash (-) response means no test result.

soybean (Glycine max) [18] = assay: Test A1 postemergence, soybean; format: in vivo; details: Postemergence
Summary of the method: as §2

[19] = test system: Pigweed, Palmer (palmer amaranth, palmer pigweed, Amaranthus palmeri); assay: Test A1 postemergence, Pigweed, Palmer; format: in vivo; details: Postemergence
Summary of the method: as §3

[20] = test system: barnyardgrass (Echinochloa crus-galli); assay: Test B1 flooded paddy test, barnyardgrass; format: in vivo; details: 250 g ai/ha, Flood, applied to paddy water, 2-leaf stage, visually evaluated after 10 to 14 days
Text: as §4

[21] = test system: blackgrass (Alopecurus myosuroides); assay: Test A1 postemergence, blackgrass; format: in vivo; details: Postemergence, 0 to 100 scale (0 no effect, 100 complete control)
Summary of the method: as §2

[22] = test system: wheat (Triticum aestivum); assay: Test A1 postemergence, wheat; format: in vivo; details: Postemergence
Summary of the method: as §2

[23] = test system: wheat (Triticum aestivum); assay: Test A1 preemergence, wheat; format: in vivo
Summary of the method: as §1

[24] = test system: ducksalad (Heteranthera limosa); assay: Test B1 flooded paddy test, ducksalad; format: in vivo; details: 250 g ai/ha, Flood, applied to paddy water, 2-leaf stage, visually evaluated after 10 to 14 days
Text: as §4

[25] = test system: ragweed (common ragweed, Ambrosia artemisiifolia); assay: Test A1 postemergence, ragweed; format: in vivo; details: Postemergence
Summary of the method: as §3

[26] = test system: Foxtail, Giant (giant foxtail, Setaria faberi); assay: Test A1 postemergence, Foxtail, Giant; format: in vivo; details: Postemergence
Summary of the method: as §2

[27] = 31 g ai/ha, 0 to 100 scale (0 no effect, 100 complete control)
[28] = 125 g ai/ha, 0 to 100 scale, 0 no effect, 100 complete control
[29] = 31 g ai/ha, 0 to 100 scale (0 no effect, 100 complete control), 10 days

melting point: 247 to 250 °C
SMILES: Cc1c(NS(=O)(=O)C(F)(F)F)cc(C(=O)N2CCOCC2)c(C)c1C [Compound 289, 1,1,1-Trifluoro-N-[2,3,4-trimethyl-5-(4-morpholinylcarbonyl)phenyl]methanesulfonamide]
Plant response rating, Pigweed, Palmer [1, 27]: 90
Plant response rating, Pigweed, Palmer [1, 28]: 100
Plant response rating, Ragweed [2, 27]: 0
Plant response rating, Ragweed [2, 28]: 60
Plant response rating, Goosegrass [3, 27]: 80
Plant response rating, Goosegrass [3, 28]: 90
Plant response rating, Horseweed [4, 29]: 80
Plant response rating, Horseweed ([4]; 125 g ai/ha, 0 to 100 scale): 90
Plant response rating, Corn (corn (Zea mays) [5]; [27]): 0
Plant response rating, Corn (corn (Zea mays) [5]; [28]): 30
Plant response rating, Oat, Wild [6, 27]: 20
Plant response rating, Oat, Wild [6, 28]: 50
Plant response rating, Oat, Wild [7]: 20
Plant response rating, Ryegrass, Italian [8, 29]: 30
Plant response rating, Ryegrass, Italian ([8]; 125 g ai/ha, 0 to 100 scale): 60
Plant response rating, Ryegrass, Italian [9, 27]: 20
Plant response rating, Ryegrass, Italian [9, 28]: 70
Plant response rating, Galium [10, 29]: 60
Plant response rating, Galium ([10]; 125 g ai/ha, 0 to 100 scale): 80
Plant response rating, Foxtail, Giant [11, 27]: 30
Plant response rating, Foxtail, Giant [11, 28]: 100
Plant response rating, Goosegrass [12, 29]: 40
Plant response rating, Goosegrass ([12]; 125 g ai/ha, 0 to 100 scale): 70
Plant response rating, Soybean (soybean (Glycine max) [13]; [27]): 20
Plant response rating, Soybean (soybean (Glycine max) [13]; [28]): 60
Plant response rating, Kochia (kochia (Bassia scoparia) [14]; [27]): 20
Plant response rating, Kochia (kochia (Bassia scoparia) [14]; [28]): 80
Plant response rating, Corn (corn (Zea mays) [15]; [29]): 0
Plant response rating, Corn (corn (Zea mays) [15]; 125 g ai/ha, 0 to 100 scale): 20
Plant response rating, Blackgrass [16, 27]: 0
Plant response rating, Blackgrass [16, 28]: 60
Plant response rating, Kochia (kochia (Bassia scoparia) [17]; [29]): 20
Plant response rating, Kochia (kochia (Bassia scoparia) [17]; 125 g ai/ha, 0 to 100 scale): 60
Plant response rating, Rice (0 to 100 scale, 0 is no effect, 100 is complete control) (rice (Oryza sativa)): 10
Plant response rating, Soybean (soybean (Glycine max) [18]; [29]): 40
Plant response rating, Soybean (soybean (Glycine max) [18]; 125 g ai/ha, 0 to 100 scale): 50
Plant response rating, Pigweed, Palmer [19, 29]: 10
Plant response rating, Pigweed, Palmer ([19]; 125 g ai/ha, 0 to 100 scale): 60
Plant response rating, Barnyardgrass (0 to 100 scale, 0 is no effect, 100 is complete control) [20]: 85
Plant response rating, Blackgrass ([21]; 31 g ai/ha, 10 days): 0
Plant response rating, Blackgrass ([21]; 125 g ai/ha): 10
Plant response rating, Wheat [22, 29]: 20
Plant response rating, Wheat ([22]; 125 g ai/ha, 0 to 100 scale): 50
Plant response rating, Wheat [23, 27]: 30
Plant response rating, Wheat [23, 28]: 80
Plant response rating, Ducksalad (0 to 100 scale, 0 is no effect, 100 is complete control) [24]: 95
Plant response rating, Ragweed [25, 29]: 70
Plant response rating, Ragweed ([25]; 125 g ai/ha, 0 to 100 scale): 80
Plant response rating, Foxtail, Giant [26, 29]: 40
Plant response rating, Foxtail, Giant ([26]; 125 g ai/ha, 0 to 100 scale): 90
